Tests used:
[1] = 101.33 kPa, Liquid; for viscosity: Capillary tube (Ostwald / Ubbelohde) method
[2] = φn = volume fraction of the nth substance listed; details: 101 kPa, Liquid

CO [methanol]
[1]
Details	mass density [kg/m3]	viscosity [mPa·s]
298.15 K	786.59	0.5446
308.15 K	777.28	0.4747
318.15 K	767.74	0.4185

CO [methanol] + O
[2]
Details	mass density, 298.15 K [kg/m3]	mass density, 308.15 K [kg/m3]	mass density, 318.15 K [kg/m3]	viscosity, 298.15 K [mPa·s]	viscosity, 308.15 K [mPa·s]	viscosity, 318.15 K [mPa·s]
φ1 = 0.01	982.97	979.73	976.04	1.084	0.8665	0.702
φ1 = 0.2	969.63	966.32	961.62	1.311	1.022	0.8075
φ1 = 0.3	956.2	951.6	946.26	1.471	1.142	0.8957
